In patent US10100058B2, “Fused heterocyclic compounds as CaM kinase inhibitors” (Gilead Sciences, Inc., priority 2016, dated 2018):

target: recombinant CaMKIIδ (Homo sapiens (Human), UniProt Q13557); assay: CaMKIIδ biochemical assay (HTRF); settings: 10 pM CaMKIIδ, 110 nM calmodulin, 12 μM ATP, 1 hour; read-out: CAMKIID-HTRF-384V2 (IC50 - nM)
Procedure: CaMKIIδ Biochemical Assay
The biochemical activity of recombinant CaMKIIδ was measured by monitoring the phosphorylation of a target peptide using Homogenous Time Resolved Fluorescence (HTRF) technology from CisBio Bioassays.

| SMILES | IC50 [nM] |
| --- | --- |
| CCN(CC)[C@@H](C)CNC(=O)c1cc(-c2cnn3ccc(-c4cccs4)nc23)nc(N2CC[C@@H]2CO)c1 [Example 267, N—((S)-2-(diethylamino)propyl)-2-((R)-2-(hydroxymethyl)azetidin-1-yl)-6-(5-(thiophen-2-yl)pyrazolo[1,5-a]pyrimidin-3-yl)isonicotinamide] | 0.28 |
| CCN[C@H](CC)CNC(=O)c1ccnc(-c2cnn3ccc(-c4cccs4)nc23)c1 [Example 29, (R)—N-(2-(ethylamino)butyl)-2-(5-(thiophen-2-yl)pyrazolo[1,5-a]pyrimidin-3-yl)isonicotinamide] | 7.72 |
| CCN[C@@H](C)CNC(=O)c1cc(-c2cnn3ccc(-c4ccccc4)nc23)nc(N2CC(OC)C2)c1 [Example 174, (S)—N-(2-(ethylamino)propyl)-2-(3-methoxyazetidin-1-yl)-6-(5-phenylpyrazolo[1,5-a]pyrimidin-3-yl)isonicotinamide] | 35.2 |
| CCN(CC)[C@@H](C)CNC(=O)c1cc(-c2c(C)n[nH]c2C)nc(-c2cnn3ccc(-c4cccs4)nc23)c1 [Example 332, (S)—N-(2-(diethylamino)propyl)-2-(3,5-dimethyl-1H-pyrazol-4-yl)-6-(5-(thiophen-2-yl)pyrazolo[1,5-a]pyrimidin-3-yl)isonicotinamide] | 0.24 |
| O=C(NCC12CCCN1CCC2)c1ccnc(-c2cnn3ccc(-c4cccs4)nc23)c1 [Example 3, N-((hexahydro-1H-pyrrolizin-7a-yl)methyl)-2-(5-(thiophen-2-yl)pyrazolo[1,5-a]pyrimidin-3-yl)isonicotinamide] | 5.55 |
| O=C(c1ccnc(-c2cnn3ccc(-c4ccccc4)nc23)c1)N1CCCC12CCCNC2 (centres unmarked) [Example 97, (2-(5-phenylpyrazolo[1,5-a]pyrimidin-3-yl)pyridin-4-yl)(1,7-diazaspiro[4.5]decan-1-yl)methanone] | 216 |
| CCN(CC)[C@@H](C)CNC(=O)c1cc(-c2cnn3ccc(-c4cccs4)nc23)nc(N2CC(F)C2)c1 [Example 153, (S)—N-(2-(diethylamino)propyl)-2-(3-fluoroazetidin-1-yl)-6-(5-(thiophen-2-yl)pyrazolo[1,5-a]pyrimidin-3-yl)isonicotinamide] | 0.13 |
| CCN(CC)[C@@H](C)CNC(=O)c1cc(-c2cnn3ccc(-c4cccs4)nc23)nc(-c2cnn3ccc(-c4cccs4)nc23)c1 [Example 337, (S)—N-(2-(diethylamino)propyl)-2,6-bis(5-(thiophen-2-yl)pyrazolo[1,5-a]pyrimidin-3-yl)isonicotinamide] | 0.33 |
| CCN(CC)[C@@H](C)CNC(=O)c1cc(-c2cnn3ccc(-c4cccs4)nc23)nc(N2CC[C@H]2C(=O)N2CC3CC3C2)c1 (stereo partly drawn) [Example 285, 2-((2S)-2-(3-azabicyclo[3.1.0]hexane-3-carbonyl)azetidin-1-yl)-N—((S)-2-(diethylamino)propyl)-6-(5-(thiophen-2-yl)pyrazolo[1,5-a]pyrimidin-3-yl)isonicotinamide] | 0.42 |
| O=C(c1ccnc(-c2cnn3ccc(-c4ccccc4)nc23)c1)N1CCCCC12CCNC2 (centres unmarked) [Example 89, (2-(5-phenylpyrazolo[1,5-a]pyrimidin-3-yl)pyridin-4-yl)(2,6-diazaspiro[4.5]decan-6-yl)methanone] | 13.6 |
| O=C(c1ccnc(-c2cnn3ccc(-c4ccccc4)nc23)c1)N1CCC2CNCC21 (centres unmarked) [Example 92, (hexahydropyrrolo[3,4-b]pyrrol-1(2H)-yl)(2-(5-phenylpyrazolo[1,5-a]pyrimidin-3-yl)pyridin-4-yl)methanone] | 32.1 |
| CCN(CC)[C@@H](C)CNC(=O)c1cc(NC(=O)OC(C)C)nc(-c2cnn3ccc(-c4cccs4)nc23)c1 [Example 187, (S)-isopropyl (4-((2-(diethylamino)propyl)carbamoyl)-6-(5-(thiophen-2-yl)pyrazolo[1,5-a]pyrimidin-3-yl)pyridin-2-yl)carbamate] | 0.27 |
| CN(C)c1cc(C(=O)N2CCCC[C@@H]2CN)cc(-c2cnn3ccc(-c4cccs4)nc23)n1 [Example 106, (R)-(2-(aminomethyl)piperidin-1-yl)(2-(dimethylamino)-6-(5-(thiophen-2-yl)pyrazolo[1,5-a]pyrimidin-3-yl)pyridin-4-yl)methanone] | 1.59 |
| NCC1CC(F)(F)CN1C(=O)c1ccnc(-c2cnn3ccc(-c4cccs4)nc23)c1 (stereo in doubt) [Example 78, (S)-(2-(aminomethyl)-4,4-difluoropyrrolidin-1-yl)(2-(5-(thiophen-2-yl)pyrazolo[1,5-a]pyrimidin-3-yl)pyridin-4-yl)methanone] | 9.44 |
| CCN[C@@H](C)CNC(=O)c1cc(-c2cnn3ccc(-c4ccccc4)nc23)nc(C2CC2)c1 [Example 123, (S)-2-cyclopropyl-N-(2-(ethylamino)propyl)-6-(5-phenylpyrazolo[1,5-a]pyrimidin-3-yl)isonicotinamide] | 94.7 |
| CCN(CC)[C@@H](C)CNC(=O)c1cc(-c2cnn3ccc(-c4cccs4)nc23)nc(N2CC[C@H](N)C2)c1 [Example 317, 2-((S)-3-aminopyrrolidin-1-yl)-N—((S)-2-(diethylamino)propyl)-6-(5-(thiophen-2-yl)pyrazolo[1,5-a]pyrimidin-3-yl)isonicotinamide] | 0.07 |
| NC[C@H]1CCCCN1C(=O)c1cc(Cl)nc(-c2cnn3ccc(-c4cccs4)nc23)c1 [Example 111, (R)-(2-(aminomethyl)piperidin-1-yl)(2-chloro-6-(5-(thiophen-2-yl)pyrazolo[1,5-a]pyrimidin-3-yl)pyridin-4-yl)methanone] | 0.05 |
| NC[C@H]1CCCCN1C(=O)c1cc(-c2cnn3ccc(-c4ccccc4)nc23)ncc1N [Example 138, (R)-(5-amino-2-(5-phenylpyrazolo[1,5-a]pyrimidin-3-yl)pyridin-4-yl)(2-(aminomethyl)piperidin-1-yl)methanone] | 0.4 |
| CCN(CC)[C@@H](C)CNC(=O)c1cc(-c2cnn3ccc(-c4cccs4)nc23)nc(N2C[C@H](O)[C@@H](O)C2)c1 [Example 243, N—((S)-2-(diethylamino)propyl)-2-((3S,4S)-3,4-dihydroxypyrrolidin-1-yl)-6-(5-(thiophen-2-yl)pyrazolo[1,5-a]pyrimidin-3-yl)isonicotinamide] | 0.14 |
| CCN(CC)[C@@H](C)CNC(=O)c1cc(-c2cnn3ccc(-c4cccs4)nc23)nc(N2CC(S(C)(=O)=O)C2)c1 [Example 149, (S)—N-(2-(diethylamino)propyl)-2-(3-(methylsulfonyl)azetidin-1-yl)-6-(5-(thiophen-2-yl)pyrazolo[1,5-a]pyrimidin-3-yl)isonicotinamide] | 0.14 |
| CCN(CC)[C@@H](C)CNC(=O)c1cc(N[C@H](C)C(N)=O)nc(-c2cnn3ccc(-c4cccs4)nc23)c1 [Example 235, 2-(((R)-1-amino-1-oxopropan-2-yl)amino)-N—((S)-2-(diethylamino)propyl)-6-(5-(thiophen-2-yl)pyrazolo[1,5-a]pyrimidin-3-yl)isonicotinamide] | 1.83 |
| Nc1cc(C(=O)N2C3CCNCC2CC3)cc(-c2cnn3ccc(-c4cccs4)nc23)n1 (centres unmarked) [Example 129, (2-amino-6-(5-(thiophen-2-yl)pyrazolo[1,5-a]pyrimidin-3-yl)pyridin-4-yl)(-3,9-diazabicyclo[4.2.1]nonan-9-yl)methanone] | 1.55 |
| O=C(c1ccnc(-c2cnn3ccc(-c4ccccc4)nc23)c1)N1CCCCC12CCCNC2 (centres unmarked) [Example 68, (2-(5-phenylpyrazolo[1,5-a]pyrimidin-3-yl)pyridin-4-yl)(1,8-diazaspiro[5.5]undecan-1-yl)methanone] | 26.3 |
